Data taken from PubChem BioAssay AID192 (DTP/NCI, 2004).
Several values for one entry are separate records, joined by “and”; a condition that tells them apart may be missing. Identical values can stand only once. Toxic doses and inconclusive results are not listed. How the source made its calls: active means survival T/C of 150% or more; inactive means T/C below 125% in these data.

Test system: BDF1 mice, B16 melanoma ip, median survival T/C
Assay: NCI In Vivo Anticancer Drug Screen. Data for tumor model B16 Melanoma (intraperitoneal) in B6D2F1 (BDF1) mice
Details: endpoint: median survival time, higher = longer survival
Method in brief: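 In this screen, activity was judged from survival or tumor size in treated versus vehicle-treated tumor-bearing mice, reported as T/C.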

[1] = dose: 50.0 mg/kg/injection, schedule: Q01DX009 (ip), vehicle: saline with Tween-80
[2] = dose: 100.0 mg/kg/injection, schedule: Q01DX009 (ip), vehicle: saline with Tween-80
[3] = dose: 0.39 mg/kg/injection, schedule: Q01DX009 (ip), vehicle: saline
[4] = dose: 0.78 mg/kg/injection, schedule: Q01DX009 (ip), vehicle: saline
[5] = dose: 1.56 mg/kg/injection, schedule: Q01DX009 (ip), vehicle: saline
[6] = dose: 100.0 mg/kg/injection, schedule: Q01DX009 (ip), vehicle: Klucel (hydroxypropylcellulose) (HPC)
[7] = dose: 200.0 mg/kg/injection, schedule: Q01DX009 (ip), vehicle: Klucel (hydroxypropylcellulose) (HPC)
[8] = dose: 300.0 mg/kg/injection, schedule: Q01DX009 (ip), vehicle: Klucel (hydroxypropylcellulose) (HPC)
[9] = dose: 12.5 mg/kg/injection, schedule: Q01DX009 (ip), vehicle: saline
[10] = dose: 25.0 mg/kg/injection, schedule: Q01DX009 (ip), vehicle: saline
[11] = dose: 50.0 mg/kg/injection, schedule: Q01DX009 (ip), vehicle: saline
[12] = dose: 25.0 mg/kg/injection, schedule: Q01DX009 (ip), vehicle: saline with Tween-80
[13] = dose: 25.0 mg/kg/injection, schedule: Q01DX009 (ip), vehicle: Klucel (hydroxypropylcellulose) (HPC)
[14] = dose: 50.0 mg/kg/injection, schedule: Q01DX009 (ip), vehicle: Klucel (hydroxypropylcellulose) (HPC)
[15] = dose: 3.12 mg/kg/injection, schedule: Q01DX009 (ip), vehicle: saline
[16] = dose: 6.25 mg/kg/injection, schedule: Q01DX009 (ip), vehicle: saline

Measured: T/C

CC(C)CCC[C@@H](C)[C@H]1CC[C@H]2[C@@H]3CC=C4C[C@@H](OC(=O)Cc5ccc(N(CCCl)CCCl)cc5)CC[C@]4(C)[C@H]3CC[C@]12C
inactive: dose: 50.0 mg/kg/injection, schedule: Q01DX009 (oral), vehicle: saline 108 % of control | dose: 100.0 mg/kg/injection, schedule: Q01DX009 (oral), vehicle: saline 104 % of control | dose: 200.0 mg/kg/injection, schedule: Q01DX009 (oral), vehicle: saline 110 % of control | dose: 400.0 mg/kg/injection, schedule: Q01DX009 (oral), vehicle: saline 104 % of control | dose: 800.0 mg/kg/injection, schedule: Q01DX009 (oral), vehicle: saline 110 % of control

CC(NC(=O)CN(C)C(=O)OCc1ccccc1)C(=O)O (stereo not given)
inactive: [1] 99 % of control | [2] 98 % of control | dose: 200.0 mg/kg/injection, schedule: Q01DX009 (ip), vehicle: saline with Tween-80 97 % of control

OCCN1CCN(CCCN2c3ccccc3Sc3ccc(C(F)(F)F)cc32)CC1
inactive: dose: 0.04 mg/kg/injection, schedule: Q01DX009 (ip), vehicle: saline 91 % of control | dose: 0.09 mg/kg/injection, schedule: Q01DX009 (ip), vehicle: saline 90 % of control and 106 % of control | dose: 0.19 mg/kg/injection, schedule: Q01DX009 (ip), vehicle: saline 102 % of control and 93 % of control | [3] 103 % of control and 109 % of control | [4] 99 % of control and 91 % of control | [5] 97 % of control

CC[C@@H]1O[C@@H]([C@@H]2CC[C@](O)([C@]3(C)CC[C@@H]([C@@H](C)[C@@]4(O)CC[C@H](C)[C@@H](C[C@@]5(O)O[C@@H]([C@@H](C)[C@H](O)C[C@H]6CC[C@H](C)[C@@H]([C@@H](C)C(=O)O)O6)CC[C@@H]5C)O4)O3)O2)CC[C@@]1(C)O
inactive: dose: 0.12 mg/kg/injection, schedule: Q01DX009 (ip), vehicle: saline 91 % of control | dose: 0.25 mg/kg/injection, schedule: Q01DX009 (ip), vehicle: saline 89 % of control | dose: 0.5 mg/kg/injection, schedule: Q01DX009 (ip), vehicle: saline 96 % of control

CCOC(=O)C(C)Nc1ccccc1 (stereo not given)
inactive: [6] 102 % of control | [7] 91 % of control | [8] 121 % of control

CN(C)c1n[nH]c(N)n1
inactive: [9] 91 % of control | [10] 102 % of control | [11] 95 % of control | dose: 100.0 mg/kg/injection, schedule: Q01DX009 (ip), vehicle: saline 96 % of control | dose: 200.0 mg/kg/injection, schedule: Q01DX009 (ip), vehicle: saline 102 % of control | dose: 400.0 mg/kg/injection, schedule: Q01DX009 (ip), vehicle: saline 104 % of control

CCOC1CCC2C(CCC(/C=C/c3ccc(O)c4ncccc34)N2C)C1 (stereo not given)
inactive: [12] 111 % of control

Cc1cc(C)c(NC(=O)Nc2ccccc2)c(C)c1
inactive: [13] 94 % of control | [14] 94 % of control | [6] 108 % of control

CN(C)CCCN1c2ccccc2CCc2ccccc21
inactive: [15] 95 % of control | [16] 102 % of control | [9] 104 % of control | [10] 93 % of control | [11] 104 % of control

CCOC(=O)C1CC(c2ccccc2)=NN1c1ccccc1 (stereo not given)
inactive: [14] 97 % of control | [6] 104 % of control | [7] 100 % of control | dose: 400.0 mg/kg/injection, schedule: Q01DX009 (ip), vehicle: Klucel (hydroxypropylcellulose) (HPC) 97 % of control

CN1CCN(Cc2c(O)ccc3c4c(c(=O)oc23)CCCC4)CC1
inactive: dose: 32.0 mg/kg/injection, schedule: Q01DX009 (ip), vehicle: Klucel (hydroxypropylcellulose) (HPC) 105 % of control | dose: 64.0 mg/kg/injection, schedule: Q01DX009 (ip), vehicle: Klucel (hydroxypropylcellulose) (HPC) 100 % of control | dose: 128.0 mg/kg/injection, schedule: Q01DX009 (ip), vehicle: Klucel (hydroxypropylcellulose) (HPC) 100 % of control

Cc1ccc(S(=O)(=O)NC(CSCc2ccccc2)C(=O)O)cc1 (stereo not given)
inactive: [1] 92 % of control | [2] 86 % of control

C[n+]1c2cc(N)ccc2cc2ccc(N)cc21
inactive: [5] 107 % of control | dose: 3.13 mg/kg/injection, schedule: Q01DX009 (ip), vehicle: saline 117 % of control | [16] 115 % of control | [9] 111 % of control

CC(Br)C(=O)NC(C)C(=O)O (stereo not given)
inactive: dose: 12.5 mg/kg/injection, schedule: Q01DX009 (ip), vehicle: saline with Tween-80 93 % of control | [12] 89 % of control | [1] 90 % of control

COC(=O)c1ccccc1NC(c1ccccn1)c1ccc2cccnc2c1O (stereo not given)
inactive: [13] 94 % of control | [14] 108 % of control | [6] 98 % of control

CCCCCCCCCCCCCCCC(=O)N(CCC#N)CCCCCCCCCN(CCC#N)C(=O)CCCCCCCCCCCCCCC
inactive: dose: 12.5 mg/kg/injection, schedule: Q04DX003 (ip), vehicle: Klucel (hydroxypropylcellulose) (HPC) 88 % of control | dose: 25.0 mg/kg/injection, schedule: Q04DX003 (ip), vehicle: Klucel (hydroxypropylcellulose) (HPC) 90 % of control

O=C(Oc1ccc(Cl)cc1Cl)c1ccc([N+](=O)[O-])cc1
inactive: [13] 87 % of control | [6] 86 % of control

NNC(=O)c1ccc(Cl)cc1Nc1ccc(F)cc1
inactive: dose: 25.0 mg/kg/injection, schedule: Q04DX003 (ip), vehicle: saline 92 % of control | dose: 50.0 mg/kg/injection, schedule: Q04DX003 (ip), vehicle: saline 97 % of control | dose: 100.0 mg/kg/injection, schedule: Q04DX003 (ip), vehicle: saline 100 % of control

COc1ccc2c(=O)c(C)c(C)oc2c1CN1CCOCC1
inactive: [3] 104 % of control | [4] 114 % of control | [5] 108 % of control | [15] 98 % of control | [16] 115 % of control

Nc1nc(=S)c2[nH]cnc2[nH]1
inactive: dose: 0.25 mg/kg/injection, schedule: Q01DX009 (ip), vehicle: saline sonified 100 % of control | dose: 0.25 mg/kg/injection, schedule: Q01DX009 (ip), vehicle: suspension in saline 109 % of control | dose: 0.5 mg/kg/injection, schedule: Q01DX009 (ip), vehicle: saline sonified 112 % of control and 115 % of control | dose: 0.5 mg/kg/injection, schedule: Q01DX009 (ip), vehicle: suspension in saline 120 % of control | dose: 1.0 mg/kg/injection, schedule: Q01DX009 (ip), vehicle: saline sonified 100 % of control | dose: 1.0 mg/kg/injection, schedule: Q01DX009 (ip), vehicle: suspension in saline 105 % of control | dose: 2.0 mg/kg/injection, schedule: Q01DX009 (ip), vehicle: saline sonified 95 % of control and 105 % of control | dose: 2.0 mg/kg/injection, schedule: Q01DX009 (ip), vehicle: saline with Tween-80 111 % of control | dose: 2.0 mg/kg/injection, schedule: Q01DX009 (ip), vehicle: suspension in saline 107 % of control

O=C(O)/C=C/C(=O)Nc1cccc(Oc2ccc([N+](=O)[O-])cc2[N+](=O)[O-])c1
inactive: dose: 150.0 mg/kg/injection, schedule: Q01DX009 (ip), vehicle: Klucel (hydroxypropylcellulose) (HPC) 90 % of control | [8] 107 % of control

C[N+](C)([O-])CCC=C1c2ccccc2CCc2ccccc21
inactive: [16] 95 % of control | [9] 90 % of control | [11] 90 % of control

N#Cc1ccc(NC(=O)Nc2nccs2)cc1
inactive: dose: 12.5 mg/kg/injection, schedule: Q01DX009 (ip), vehicle: distilled water + Tween-80 115 % of control

CC(CCc1ccccc1)NN (stereo not given)
inactive: [15] 122 % of control | [16] 112 % of control and 116 % of control | [9] 113 % of control | [10] 103 % of control and 112 % of control

N#CC(Nc1ccccc1)c1ccccc1 (stereo not given)
inactive: [14] 100 % of control | [6] 94 % of control

CC(=O)NC(CC(C)C)C(=O)O (stereo not given)
inactive: [12] 108 % of control | [1] 121 % of control | [2] 101 % of control
